From ChEMBL document CHEMBL1201862, “PubChem BioAssay data set” (2004)
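Values below derive from 48-hour exposures of cells grown in 96-well plates, with endpoints linearly interpolated between the two concentrations bracketing the appropriate inhibition level. GI50: concentration for 50% inhibition of growth.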 Active and inactive are the calls of the source. Rule as the data show it: active = GI50 up to about 1.1 µM and inactive = higher.

Experiments:
Assay in all cases: NCI-60 cell line screen, 48 h
[1] = system: SF-295
[2] = system: UACC-62
[3] = system: UACC-257
[4] = system: SK-MEL-2
[5] = system: SK-OV-3
[6] = system: OVCAR-8
[7] = system: K562
[8] = system: SNB-19
[9] = system: LXFL 529
[10] = system: HCT-15
[11] = system: HT-29
[12] = system: SNB-75
[13] = system: MOLT-4
[14] = system: SF-539
[15] = system: CAKI-1
[16] = system: NCI-H460
[17] = system: ACHN
[18] = system: HCC 2998
[19] = system: MCF7
[20] = system: HL-60

SMILES | GI50 [1] | GI50 [2] | GI50 [3] | GI50 [4] | GI50 [5] | GI50 [6] | GI50 [7] | GI50 [8] | GI50 [9] | GI50 [10] [µM] | GI50 [11] | GI50 [12] | GI50 [13] | GI50 [14] | GI50 [15] | GI50 [16] | GI50 [17] | GI50 [18] | GI50 [19] | GI50 [20]
CC(C)(CN1CCCCC1)C(=O)CC(SCCN)c1ccc(Cl)cc1 (stereo not given) | 3.22 µM (inactive) | 1.65 µM (inactive) | 2.09 µM (inactive) | 1.7 µM (inactive) | 2.6 µM (inactive) | 2.04 µM (inactive) | 1.18 µM (inactive) | 1.78 µM (inactive) | 1.75 µM (inactive) | 1.63 | 1.95 µM (inactive) | 1.98 µM (inactive) | 1.72 µM (inactive) | 1.66 µM (inactive) | 1.71 µM (inactive) | 2.11 µM (inactive) | 2.78 µM (inactive) | 1.85 µM (inactive) | – | –
CC(=O)C1=C(C)N(c2ccccc2)C2(O)C=CC(O)=C3C(=O)c4ccccc4C(=O)C312 (stereo not given) | 14.9 µM (inactive) | 15.6 µM (inactive) | 5.65 µM (inactive) | 15.3 µM (inactive) | 48.4 µM (inactive) | 9.18 µM (inactive) | 8.13 µM (inactive) | 17.1 µM (inactive) | – | 6.47 | 4.7 µM (inactive) | 35.2 µM (inactive) | 8.28 µM (inactive) | 21.1 µM (inactive) | 14.3 µM (inactive) | 8.87 µM (inactive) | 11.4 µM (inactive) | 10.6 µM (inactive) | 22.3 µM (inactive) | 5.69 µM (inactive)
N=C(N)NS(=O)(=O)c1ccc(NC(=O)c2ccc(Cl)c3c(Nc4ccc(S(=O)(=O)N=C(N)N)cc4)c4ccccc4nc23)cc1 | > 100 µM (inactive) | 37.5 µM (inactive) | 84.5 µM (inactive) | 39.5 µM (inactive) | > 100 µM (inactive) | > 100 µM (inactive) | 38.1 µM (inactive) | 53.3 µM (inactive) | 52.8 µM (inactive) | > 100 | > 100 µM (inactive) | 24.5 µM (inactive) | > 100 µM (inactive) | 53.7 µM (inactive) | 45.4 µM (inactive) | > 100 µM (inactive) | 95.5 µM (inactive) | – | – | 41.3 µM (inactive)
O=C(CCc1ccccc1)ON1C(=S)NC(c2ccccc2)(c2ccccc2)C1=S | 42 µM (inactive) | 33.9 µM (inactive) | 36.5 µM (inactive) | 20.2 µM (inactive) | 35.6 µM (inactive) | 31.2 µM (inactive) | 14.6 µM (inactive) | 64.4 µM (inactive) | – | 28.4 | 25.4 µM (inactive) | 33 µM (inactive) | 32.3 µM (inactive) | 26.4 µM (inactive) | 33.7 µM (inactive) | 31.6 µM (inactive) | 44.9 µM (inactive) | 29.4 µM (inactive) | 32.9 µM (inactive) | 21.6 µM (inactive)
CCOC(=O)C12CCC(c3c(C)cccc3C)(O1)C(C(=O)OC)=C2C(=O)OC (stereo not given) | 5.45 µM (inactive) | 4.73 µM (inactive) | 2.58 µM (inactive) | > 8.99 µM (inactive) | 5.09 µM (inactive) | 5.4 µM (inactive) | 3.62 µM (inactive) | > 9.64 µM (inactive) | – | 4.69 | 0.748 µM (active) | 3.64 µM (inactive) | 4.74 µM (inactive) | 2.11 µM (inactive) | > 5.6 µM (inactive) | 2.23 µM (inactive) | > 8.49 µM (inactive) | 6.7 µM (inactive) | 1.3 µM (inactive) | 1.82 µM (inactive)
COc1cc(NS(C)(=O)=O)ccc1NCc1c[nH]c2ccc3ncccc3c12 | 18.5 µM (inactive) | 17.3 µM (inactive) | 17 µM (inactive) | 19.5 µM (inactive) | 16.5 µM (inactive) | 25 µM (inactive) | 9.12 µM (inactive) | 30.1 µM (inactive) | – | 21.7 | 23.2 µM (inactive) | 14.3 µM (inactive) | 5.83 µM (inactive) | 19.3 µM (inactive) | 22.4 µM (inactive) | 18.2 µM (inactive) | 21 µM (inactive) | 18.9 µM (inactive) | 19.4 µM (inactive) | 0.871 µM (active)
CCCCCCCCCCCCCC(=O)N(CCCCCCCCC)CC(O)C(O)C(OC1OC(CO)C(O)C(O)C1O)C(O)CO (stereo not given) | 20.7 µM (inactive) | 20.7 µM (inactive) | 17.1 µM (inactive) | 24.6 µM (inactive) | 14.7 µM (inactive) | 20.8 µM (inactive) | 19.9 µM (inactive) | 24.5 µM (inactive) | – | 23.6 | 18.5 µM (inactive) | 19.5 µM (inactive) | 24.4 µM (inactive) | 22 µM (inactive) | 16.9 µM (inactive) | 20.1 µM (inactive) | 15.8 µM (inactive) | 18.5 µM (inactive) | 36.5 µM (inactive) | 23.3 µM (inactive)
CCC1(CC)C(=O)NC(=O)NC1=S | > 100 µM (inactive) | > 100 µM (inactive) | > 100 µM (inactive) | > 100 µM (inactive) | > 100 µM (inactive) | > 100 µM (inactive) | > 100 µM (inactive) | > 100 µM (inactive) | > 100 µM (inactive) | > 100 | > 100 µM (inactive) | > 100 µM (inactive) | > 100 µM (inactive) | > 100 µM (inactive) | – | > 100 µM (inactive) | > 100 µM (inactive) | – | – | > 100 µM (inactive)
CC(=O)O[C@]12CCCC1C1(O)C(O)CCCC12 (stereo not given in full) | > 100 µM (inactive) | > 100 µM (inactive) | > 100 µM (inactive) | > 100 µM (inactive) | > 100 µM (inactive) | > 100 µM (inactive) | > 100 µM (inactive) | > 100 µM (inactive) | > 100 µM (inactive) | > 100 | > 100 µM (inactive) | > 100 µM (inactive) | > 100 µM (inactive) | – | – | > 100 µM (inactive) | > 100 µM (inactive) | – | – | > 100 µM (inactive)
COc1nc(OC)nc(-c2cccc(F)c2)n1 | 13.4 µM (inactive) | 8.51 µM (inactive) | 14.3 µM (inactive) | 18.8 µM (inactive) | 15.9 µM (inactive) | 23.4 µM (inactive) | 18.1 µM (inactive) | 16.9 µM (inactive) | – | 13.7 | 17.1 µM (inactive) | 21.2 µM (inactive) | 4.99 µM (inactive) | 17.4 µM (inactive) | < 0.01 µM (active) | 14.9 µM (inactive) | 16.4 µM (inactive) | 13.4 µM (inactive) | 15.9 µM (inactive) | 24.3 µM (inactive)
O=C(O)Cn1ccc(=O)c2cc([N+](=O)[O-])ccc21 | > 100 µM (inactive) | > 100 µM (inactive) | > 100 µM (inactive) | > 100 µM (inactive) | > 100 µM (inactive) | > 100 µM (inactive) | > 100 µM (inactive) | > 100 µM (inactive) | – | > 100 | > 100 µM (inactive) | > 100 µM (inactive) | > 100 µM (inactive) | > 100 µM (inactive) | > 100 µM (inactive) | > 100 µM (inactive) | > 100 µM (inactive) | > 100 µM (inactive) | > 100 µM (inactive) | > 100 µM (inactive)
CCC(C)C1(O)OC2CC3(C)OC(=CC3=O)/C(C)=C\C3OC(=O)C1(C)C32 (stereo not given) | 20.5 µM (inactive) | 14.3 µM (inactive) | 7.01 µM (inactive) | 21.3 µM (inactive) | 37.6 µM (inactive) | 16 µM (inactive) | 7.6 µM (inactive) | 33.7 µM (inactive) | – | 3.3 | 14.2 µM (inactive) | 37.2 µM (inactive) | 12.3 µM (inactive) | 22.3 µM (inactive) | 14.4 µM (inactive) | 14.2 µM (inactive) | 9.14 µM (inactive) | 15.2 µM (inactive) | 9.77 µM (inactive) | 3.12 µM (inactive)
[O-][n+]1c2c([n+]([O-])c3ccccc31)CCCCCCCCCC2 | > 100 µM (inactive) | > 100 µM (inactive) | 67.8 µM (inactive) | > 100 µM (inactive) | > 100 µM (inactive) | – | 69.7 µM (inactive) | > 100 µM (inactive) | 68.1 µM (inactive) | > 100 | > 100 µM (inactive) | > 100 µM (inactive) | 45.5 µM (inactive) | > 100 µM (inactive) | > 100 µM (inactive) | – | > 100 µM (inactive) | – | – | 44.1 µM (inactive)
Cc1cc2c3ccccc3[nH]c2c2ccnc(C)c12 | 20 µM (inactive) | 7.36 µM (inactive) | 18.2 µM (inactive) | 8.63 µM (inactive) | 14.2 µM (inactive) | 8.69 µM (inactive) | 2.22 µM (inactive) | 18.6 µM (inactive) | – | 2.34 | 3.55 µM (inactive) | 7.28 µM (inactive) | 7.16 µM (inactive) | 2.76 µM (inactive) | 19 µM (inactive) | 2.35 µM (inactive) | 15.7 µM (inactive) | 2.87 µM (inactive) | 27.9 µM (inactive) | 2.07 µM (inactive)
NCCNC(=O)CN(CC(=O)O)C1CCCCC1N(CC(=O)O)CC(=O)O (stereo not given) | > 100 µM (inactive) | > 100 µM (inactive) | > 100 µM (inactive) | > 100 µM (inactive) | > 100 µM (inactive) | > 100 µM (inactive) | > 100 µM (inactive) | > 100 µM (inactive) | – | > 100 | > 100 µM (inactive) | 2.32 µM (inactive) | > 100 µM (inactive) | > 100 µM (inactive) | > 100 µM (inactive) | > 100 µM (inactive) | > 100 µM (inactive) | > 100 µM (inactive) | > 100 µM (inactive) | > 100 µM (inactive)
